Patent US10000469B2, “Heat shock protein 70 (hsp-70) receptor ligands” (Duke University, priority 2014, dated 2018)

Assays:
[1] = molecular target: T1, Hsp70i (Homo sapiens, UniProt P0DMV8); experiment: Thermofluor assay, purified Hsp70i; assay type: binding; parameters: Full length Hsp70 (black arrow) and tryptic fragments (blue arrows); His tag (cleaved yes); made in house; details: for decrease of ATP bound Hsp70i Tm: in presence of ATP; for decrease of the Tm of Hsp70i: no nucleotide
Procedure: Protein Purification: Plasmids were provided for human HSPA1A, HSPA8, and HSPA1A C306D. Plasmids were transformed in Rosetta competent cells and single colonies were picked from streaked LB/ampicillin/chloramphenicol plates. Cultures were grown at 37° C. for 4-6 hours, were cooled to 15° C. and expression was induced overnight with 200 uM isopropyl 1-thio-β-D-galactopyranoside. Cells were pelleted and resuspended in Ni-lysis buffer (50 mM Na2HPO4, 300 mM NaCl, 10 mM Imidazole, 0.05% Tween-20) supplemented with Complete Mini protease inhibitor tablets (Roche, Mannheim, Germany) and […], and then sonicated. The cells were again pelleted and the supernatant was incubated with complete His-Tag purification resin (Roche, Mannheim, Germany) for 5 hours at 4° C. The resin was washed with Ni-wash buffer (50 mM Na2HPO4, 300 mM NaCl, 20 mM Imidazole, 0.05% Tween-20) and eluted with Ni-elution buffer (50 mM Na2HPO4, 300 mM NaCl, 250 mM Imidazole, 0.05% Tween-20). The elution was then incubated with tobacco etch virus protease overnight at 4° C. The following day the elution was incubated with the γ-phosphate ATP sepharose resin for 30 minutes at 4° C. Next the resin was washed with ATP-wash buffer (50 mMTris-HCl, 60 mM MgCl2, 60 mM KCl, 10 mM Citrate) supplemented with 1 mM DTT and then ATP-wash buffer supplemented with 2 mM ATP was added to the resin to elute the protein. The final elutions were concentrated in Amicon Ultra-15 Centrifugal Filter Units (EMD Millipore, Billerica, Mass.) and buffer exchanged into 25 mM HEPES, 5 mM MgCl2, 10 mM KCl (pH 7.5) and stored at −80° C. until use.
Thermofluor Assay: SYPRO orange (Molecular Probes, Eugene, Oreg.) was diluted 1:1000 in 25 mM HEPES, 5 mM MgCl2, 10 mM KCl (pH 7.5) and purified Hsp70i, Hsc70, Hsp70i C306, or Hsp90, was then added to a final dilution of 0.04 mg/ml. Where indicated 0.001% or 0.01% Triton X-100 (Sigma) was also added. The indicated compound or DMSO was then added at the specified concentration and each sample was added as 5 replicates to a 384 well plate (BioRad, Hercules, Calif.). A melt curve protocol (25° C. to 90° C., increasing 0.5° C. and a plate reading every 30 seconds) was run on a CFX384 Touch™ Real-Time PCR Detection System (BioRad). To determine the midpoint of the protein unfolding transition or Tm, GraphPad Prisim4 (La Jolla, Calif.) was used to normalize the melt curve and to calculate the first derivate of the melt curve, with the steepest point of the slope being the Tm.

[2] = tested on: LnCaP prostate cancer cell lines; experiment: Cell proliferation, LNCaP; assay type: cell-based
Procedure: (§1) Cell Proliferation: Cell proliferation was determined using a Hoechst stain (Sigma, St. Louis, Mo.) to quantify DNA. 5,000 cells of the designated cell line were plated in 96 well plates and treated the next day, designated as time point 0, with the indicated concentration of the specified compound maintained for the duration of the assay. At the indicated time points the media was removed and plated frozen at −80° C. Double distilled H2O was then added and the plates were incubated at 37° C. for 1 hour. After 1 hour the plates were frozen at −80° C. After freezing the plates were thawed and Hoechst stain was diluted 1:1000 in THE buffer (10 mM Tris, 2M NaCl, 1 mM Na2EDTA). The final fluorescence was measured on the Victor X2 plate reader at 355/460 nm, and cell proliferation was determined with the formula: % Cell Proliferation=100×(Sample fluorescence−background fluorescence)/(Control fluorescence−background fluorescence).

[3] = molecular target: T2, Hsc70 (Homo sapiens, UniProt P11142); experiment: Thermofluor assay, purified Hsc70; assay type: binding; details: ±ATP
T2 construct: His tag (cleaved yes); made in house
Procedure: Protein Purification: Plasmids were provided for human HSPA1A, HSPA8, and HSPA1A C306D. Plasmids were transformed in Rosetta competent cells and single colonies were picked from streaked LB/ampicillin/chloramphenicol plates. Cultures were grown at 37° C. for 4-6 hours, were cooled to 15° C. and expression was induced overnight with 200 uM isopropyl 1-thio-β-D-galactopyranoside. Cells were pelleted and resuspended in Ni-lysis buffer (50 mM Na2HPO4, 300 mM NaCl, 10 mM Imidazole, 0.05% Tween-20) supplemented with Complete Mini protease inhibitor tablets (Roche, Mannheim, Germany) and […], and then sonicated. The cells were again pelleted and the supernatant was incubated with complete His-Tag purification resin (Roche, Mannheim, Germany) for 5 hours at 4° C. The resin was washed with Ni-wash buffer (50 mM Na2HPO4, 300 mM NaCl, 20 mM Imidazole, 0.05% Tween-20) and eluted with Ni-elution buffer (50 mM Na2HPO4, 300 mM NaCl, 250 mM Imidazole, 0.05% Tween-20). […]
Thermofluor Assay: SYPRO orange (Molecular Probes, Eugene, Oreg.) was diluted 1:1000 in 25 mM HEPES, 5 mM MgCl2, 10 mM KCl (pH 7.5) and purified Hsp70i, Hsc70, Hsp70i C306, or Hsp90, was then added to a final dilution of 0.04 mg/ml. […] A melt curve protocol (25° C. to 90° C., increasing 0.5° C. and a plate reading every 30 seconds) was run on a CFX384 Touch™ Real-Time PCR Detection System (BioRad). […]

[4] = molecular target: T1, Hsp70i; experiment: Partial proteolysis of Hsp70i with trypsin; parameters: Full length Hsp70 (black arrow) and tryptic fragments (blue arrows); His tag (cleaved yes); made in house; details: 100 uM compound, silver stain
Procedure: Mass Spectrometry: Tryptic peptides were subjected to matrix-assisted laser desorption-ionization mass spectrometry (MALDI-MS) on an ABSCIEX TOF/TOF 5800 mass spectrometer. Positive mode time of flight was used to identify peptides, and individual peptides were sequenced by MS/MS. All sequence and peptide fingerprint data was searched using the UniProt database.
Partial Proteolysis: Hsp70i (8 μg for SDS-PAGE analysis, 2 μg for mass spec analysis) was incubated with 1 mM ATP, 1 mM ADP, 100 uM HS72, 100 uM HS72+1 mM ATP, or 100 uM HS72+1 mM ADP for 30 min. at room temperature. Hsp70i was digested by adding 0.1 μg of trypsin (Promega, Madison, Wis.) per 2 μg of protein and was quenched by addition of 25% TFA for mass spec analysis or addition of 5×SDS loading buffer and boiling for SDS-PAGE analysis at 2 hours, or 24 hours. Gels were visualized by silver stain.

[5] = tested on: SkBr3; experiment: Cell proliferation, SkBr3; assay type: cell-based; details: SkBr3
Procedure: as §1

T1 sequence (P0DMV8 whole entry, the tested form may be a part): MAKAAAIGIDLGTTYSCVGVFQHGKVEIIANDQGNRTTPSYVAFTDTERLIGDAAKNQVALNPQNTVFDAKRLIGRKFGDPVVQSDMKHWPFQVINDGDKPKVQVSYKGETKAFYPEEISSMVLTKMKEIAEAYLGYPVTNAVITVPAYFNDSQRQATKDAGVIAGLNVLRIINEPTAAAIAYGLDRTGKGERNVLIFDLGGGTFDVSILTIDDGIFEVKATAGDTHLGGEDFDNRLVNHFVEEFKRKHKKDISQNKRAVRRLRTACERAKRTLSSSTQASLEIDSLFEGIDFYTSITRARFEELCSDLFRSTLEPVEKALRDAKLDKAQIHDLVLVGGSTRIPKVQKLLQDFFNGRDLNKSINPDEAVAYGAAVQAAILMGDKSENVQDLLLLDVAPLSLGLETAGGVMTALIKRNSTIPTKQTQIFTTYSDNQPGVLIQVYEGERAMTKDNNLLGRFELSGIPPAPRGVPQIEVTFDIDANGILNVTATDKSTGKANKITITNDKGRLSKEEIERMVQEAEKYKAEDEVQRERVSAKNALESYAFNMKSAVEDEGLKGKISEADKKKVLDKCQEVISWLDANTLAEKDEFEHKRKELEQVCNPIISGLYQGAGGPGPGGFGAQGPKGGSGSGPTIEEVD
T2 sequence (P11142 whole entry): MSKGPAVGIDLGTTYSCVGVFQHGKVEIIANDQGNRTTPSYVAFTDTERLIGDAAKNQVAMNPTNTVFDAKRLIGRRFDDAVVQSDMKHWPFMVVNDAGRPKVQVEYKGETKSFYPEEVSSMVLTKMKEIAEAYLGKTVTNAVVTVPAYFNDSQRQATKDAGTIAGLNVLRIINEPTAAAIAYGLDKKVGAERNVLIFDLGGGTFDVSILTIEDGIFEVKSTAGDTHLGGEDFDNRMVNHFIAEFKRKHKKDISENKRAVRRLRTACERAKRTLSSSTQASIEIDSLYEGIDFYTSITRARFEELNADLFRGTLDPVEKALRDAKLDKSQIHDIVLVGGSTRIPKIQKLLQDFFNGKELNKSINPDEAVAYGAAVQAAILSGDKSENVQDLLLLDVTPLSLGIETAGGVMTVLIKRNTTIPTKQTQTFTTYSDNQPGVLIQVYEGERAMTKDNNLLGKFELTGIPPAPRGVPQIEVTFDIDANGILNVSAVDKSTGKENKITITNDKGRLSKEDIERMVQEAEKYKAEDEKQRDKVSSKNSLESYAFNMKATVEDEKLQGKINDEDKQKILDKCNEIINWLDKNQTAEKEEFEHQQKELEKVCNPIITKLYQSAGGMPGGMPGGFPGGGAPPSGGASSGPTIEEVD

Question: Which results are given for `CCCn1c(NC(=O)[C@H]2CCCN(c3cnccn3)C2)nc2ccccc21` [HS-72, (S)—N-(1-propyl-1H-benzo[d]imidazol-2-yl)-1-(pyrazin-2-yl)piperidine-3-carboxamide]?
Answer: decrease of ATP bound Hsp70i Tm ([1]; 10 uM): 0.5 °C; decrease of the Tm of Hsp70i ([1]; 10 uM): 0.1 °C; decrease of ATP bound Hsp70i Tm ([1]; 100 uM): 1 °C; decrease of the Tm of Hsp70i ([1]; 100 uM): 0.5 °C; Tm of Hsp70 with compound alone vs. compound plus detergent ([1]; 100 uM, 0.001% or 0.01% Triton): no difference; effect on Hsp70i Tm in combination with PES ([1]; absence or presence of ATP): no synergistic or additive effect; effect on Hsp70i Tm in combination with VER ([1]; absence or presence of ATP): no observed synergistic or additive effect; effect on Tm of Hsp70i ([1]; compound alone): decreased in a dose dependent manner; effect on Tm of ADP Hsp70i ([1]; in presence of ADP): does not change; cell proliferation [2]: inhibits proliferation; effect on Tm of Hsc70 [3]: does not change; proteolytic pattern of Hsp70i [4]: profound difference in the proteolytic pattern; cell proliferation [5]: inhibits proliferation; cell proliferation, combination with HS-10 [5]: additive effect; cell proliferation, combination with HS-10 ([5]; listed as HS72): synergism
